Laboratory results taken from patent US6759538B2, “Substituted diphenyl heterocycles useful for treating HCV infection” (priority 2001, dated 2004).

Tests used:
HCV replicon = HCV replicon assay (luciferase); assay type: cell-based, Hepatitis C virus (HCV); details: 5-2 Luc replicon cells, 24 hours with compound, luciferase emission; first symbol of Replicon/Western
[1] = tested on: HCV nonstructural protein NS5A; assay: Quantitative Western blot assay; assay type: cell-based, Hepatitis C virus (HCV); details: 9-13 replicon cells, 48 hours with compound, second symbol of Replicon/Western
Description: Alternatively, the inhibitory activity of the compounds can be confirmed using a quantitative Western immunoblot assay utilizing antibodies specific for HCV non-structural proteins, such as NS3, NS4A NS5A and NS5B. In one embodiment of this assay, replicon cells are treated with varying concentrations of test compound to determine the concentration of test compound that yields a 50% reduction in the amount of a non-structural protein produced as compared to a control sample (IC50). A single non-structural protein may be quantified or multiple non-structural proteins may be quantified. Antibodies suitable for carrying out such immunoblot assays are available commercially (e.g., from BIODESIGN International, Saco, Me.).
Certain exemplary compounds of the invention were also tested for their ability to inhibit HCV replication using a quantitative Western blot analysis with antibodies specific for the HCV nonstructural protein NS5A. Actively dividing 9-13 replicon cells were seeded into 6-well plates at a density of 1×10^5 cells/well in a volume of 2 ml/well and incubated at 37° C. and 5% CO2 for 24 hours. Various concentrations of test compounds (in a volume of 10 ul) were added to the wells and the cells incubated for another 48 hours. Protein samples were prepared from the cultured cells, resolved on a SDS-PAGE gel and transferred to a nitrocellulose membrane. The membrane was blocked with 5% non-fat milk in PBS for 1 hour at room temperature. Primary antibody (anti NS5A antibody; BIODESIGN International, Saco, Me.) incubation was performed for 1 hour at room temperature, after which the membrane was washed 3 times (for 15 min per time) with PBST (PBS plus 0.1% Tween 20). Horseradish peroxidase conjugated secondary antibody incubation was performed for 1 hour at room temperature and the membrane was washed 3 times (for 15 min per time) with PBST. The membrane was then soaked in substrate solution (Pierce) and exposed to a film or quantified using an imager. In this assay, the amount of test compound that yielded a 50% reduction in the amount of NS5A protein translated as compared to a control sample (IC50) was determined.

HCV virus = assay: HCV infection assay; assay type: cell-based, Hepatitis C virus (HCV); details: hepatocyte cells from a donor, inoculated Day 3, RNA Day 8; read-out: IC50 HCV infection assay (HCV RNA, Taqman)
Source text: Alternatively, the inhibitory activity of the compounds may be confirmed in an HCV infection assay, such as the HCV infection assay described in Fournier et al., 1998, J. Gen. Virol. 79(10):2367:2374, the disclosure of which is incorporated herein by reference. In one embodiment of this assay, the amount of test compound that yields a 50% reduction in HCV replication or proliferation as compared to a control cell (IC50) may be determined. The extent of HCV replication may be determined by quantifying the amount of HCV RNA present in HCV infected cells. A specific method for carrying out such an assay is provided in the Examples section.
The activity of Compound 9 was also confirmed in an HCV infection assay. The assay was carried out essentially as described in Fournier et al., 1998, J. Gen. Virol. 79:2367-2374. Briefly, hepatocyte cells from a doner were plated on Day 1. On Day 3, the cells were inoculated with HCV virus and test compound was added. On Day 5, the medium was changed and test compound was added. On Day 7, the medium was changed and test compound was added. On Day 8, the RNA was isolated and the HCV RNA quantified using a Taqman assay.

[2] = Safety studies in rats, subcutaneous and intravenous administration
Description: The safety of compound 9 was evaluated in rats by both subcutaneous and intravenous administration in several experiments. […] The experiments performed are summarized below.
In a second study compound 9 was administered by the IV route at doses of 10 and 30 mg/kg in 100% PEG. The volume administered for the 10 mg/kg dose was 0.67 ml/kg/day and volume given the 30 mg/kg group was 2 ml/kg/day. In addition, there were two control groups. One control received 100% PEG alone at a volume of 2 ml/kg/day while the other was an untreated sham control group. […] Parameters of study included: clinical observations, body weights, hematology, clinical chemistry, gross necropsy, organ weights, bone marrow assessment and histopathology of selected organs.
A vehicle control group received the 100% PEG alone at the same volume. Groups comprised 3 males and 3 females each. Before reducing the dose to 10 and 30 mg/kg two rats received 100 mg/kg IV at a volume of 1 ml/kg. […] Parameters of study included: clinical observations, body weights, hematology, clinical chemistry, gross necropsy, organ weights and histopathology of selected organs (including injection sites).

[3] = Pharmacokinetics, plasma levels with liposome suspension vehicles; assay type: in vivo, rats, monkeys and chimpanzees; details: subcutaneous, liposome suspension vehicles: 5 mg/ml in water with 100 or 200 mg/ml lecithin, or 100 mg/ml lecithin and 5 mg/ml cholesterol
Description: The pharmacokinetic properties of compound 9 were calculated in rats, monkeys and chimpanzees using the intravenous and subcutaneous routes of administration with a variety of different delivery vehicles.

[4] = Toxicokinetic determinations in rats; details: rat

O=C(Nc1cccc(-c2cc(-c3c(Cl)cccc3Cl)no2)c1)C(Cl)Cl [Compound 9, 2,2-Dichloro-N-[3-[3-(2,6-dichlorophenyl)-5-isoxazolyl]phenyl] Acetamide]
IC50 (HCV replicon): ≤ 10 µM | IC50 [1]: ≤ 10 µM | IC50 (HCV virus): < 10 µM | other findings, second study ([2]; IV 10 and 30 mg/kg, 7 days): no untoward findings | well tolerated dose, first study ([2]; Sprague Dawley rats, SC and IV, dose escalation): ≤ 30 mg/kg | clinical signs at IV 60 mg/kg ([2]; first study, Day 5, IV 60 mg/kg in 100% PEG): immediate clinical signs (collapsing, thrashing, dyspnea and reddish discolored urine) were observed | time for symptoms to abate ([2]; first study, IV 60 mg/kg): ≤ 1 h | NOAEL (no observed adverse effect level) ([2]; rat, IV, 7 days): 30 mg/kg | NOAEL ([2]; rat, intravenous, 14-days): 30 mg/kg | well tolerated dose ([2]; rats, subcutaneous and intravenous): ≤ 30 mg/kg/day | hematology finding at 30 mg/kg ([2]; second study, IV, 100% PEG, 7 days, relative to untreated control but not vehicle control): very slight decreases in red blood cells, hemoglobin and hematocrit | necropsy findings ([2]; third study, IV 10 and 30 mg/kg): no gross or microscopic morphological changes | clinical observations, body weights, hematology, clinical chemistry, organ weights ([2]; third study, IV 10 and 30 mg/kg, versus vehicle control): unaffected by treatment | mortality at 100 mg/kg IV ([2]; third study, two rats, 100 mg/kg IV, 1 ml/kg): Both animals died within a minute or two of dosing | plasma levels [3]: Sustained plasma levels were achieved | T1/2 ([4]; IV): about 5 minutes | exposure, IV route ([4]; IV): high exposure | persistence of measurable compound ([4]; IV): still apparent after 2 hours | Tmax ([4]; SC): about 30 minutes | exposure, subcutaneous route ([4]; SC): much lower exposure | persistence of exposure ([4]; SC): remains sustained through 2 hours post-dosing
